Data from paper PMC7470104, “Discovery of 3,6-disubstituted pyridazines as a novel class of anticancer agents targeting cyclin-dependent kinase 2: synthesis, biological evaluation and in silico insights” (Journal of Enzyme Inhibition and Medicinal Chemistry, 2020).
Where two headings read alike, the source gives them in different places.

Experiments:
MDA-MB-231 cells [1] = experiment: SRB anti-proliferative assay, MDA-MB-231; assay type: cell-based; settings: Homo sapiens, read-out: IC50 MDA-MB-231
Text: (§1) MDA-MB-231 cell line is classified as a triple-negative/basal-like cell line, which is hormone (estrogen and progesterone)-receptor negative and HER2 negative, whereas T-47D is considered as hormone-receptor positive and HER2 negative breast cancer cell line.
(§2) 2. Anti-proliferative activities
(§3) The three examined human cancer cell lines; T-47D (breast cancer), MDA-MB-231 (breast carcinoma) and SKOV-3 (ovarian cancer), as well as the non-tumorigenic human breast cell line (MCF-10A) have been obtained from American Type Culture Collection (ATCC). The cells were maintained in Dulbecco's modified Eagle's medium (DMEM) supplemented with 10% heat inactivated fetal calf serum (GIBCO), penicillin (100 U/ml) and streptomycin (100 µg/ml) at 37 °C in humidified atmosphere containing 5% CO2. Cells at a concentration of 0.50 x 106 were grown in a 25 cm2 flask in 5 ml of culture medium.
(§4) The anti-proliferative activity of the tested pyridazines 11a-r was measured in vitro using the Sulfo-Rhodamine-B stain (SRB) assay. Briefly, Cells were inoculated in 96-well microtiter plate (5X104 cells/ well) for 24 h before treatment with the tested pyridazines to allow attachment of cell to the wall of the plate. Tested pyridazines were dissolved in DMSO at 1 mg/ml immediately before use and diluted to the appropriate volume just before addition to the cell culture. Different concentrations of tested pyridazines and staurosporine were added to the cells (three wells were prepared for each individual dose). Cells were incubated with the pyridazines for 48 h at 37°C and in atmosphere of 5% CO2. After 48 h cells were fixed, washed, and stained for 30 min with 0.4% (w/v) SRB dissolved in 1% acetic acid. Unbound dye was removed by four washes with 1% acetic acid, and attached stain was recovered with Tris-EDTA buffer. Color intensity was measured in an ELISA reader. The relation between percent of surviving fraction and drug concentration is plotted to get the survival curve for each cell line. The concentration required for 50% inhibition of cell viability (IC50) was calculated. […]

T-47D cells [2] = experiment: SRB anti-proliferative assay, T-47D; assay type: cell-based; settings: Homo sapiens, T47D, 48 h, read-out: IC50 T-47D
Text: as §1, §2, §3, §4

CDK2/CyclinA2 = CDK2/CyclinA2 (Homo sapiens, UniProt P24941); experiment: In vitro CDK2 kinase assay (CDK2/CyclinA2 Kinase Enzyme System)
Text: CDK Kinase Inhibitory Activity

MCF-10A cells = experiment: MTT cytotoxicity towards non-tumorigenic breast cells; assay type: cell-based, human; settings: for IC50: read-out: IC50 MCF-10A
T-47D cells [3] = experiment: Cell cycle analysis by flow cytometry, T-47D; assay type: cell-based, human; settings: treated at IC50, 24 h, vs untreated control
Text: (§5) In this study, the efficient anti-proliferative activities of target pyridazines 11a-r towards breast cancer cell lines promoted us to explore and get insights into the plausible cellular mechanisms for these small molecules. To this end, we decided to determine if the target pyridazines exerted their cytotoxic activity through alteration in cell cycle progression and/or induction of apoptosis in both breast cancer T-47D and MDA-MB-231 cells. As a reliable tool, the flow cytometric analysis was utilised to inspect the cell cycle distribution after treatment of T-47D and MDA-MB-231 cells with IC50s of pyridazines 11l and 11m; […]
as §2
as §3, with “medium. […]” for “medium.”
Tested pyridazines were dissolved in […]
The relation between percent of surviving fraction and drug concentration is plotted to get the survival curve for each cell line. The concentration required for 50% inhibition of cell viability (IC50) was calculated.
Breast cancer T-47D and MDA-MB-231 cells were treated with pyridazines 11l and 11m for 24 h (at their IC50 concentration), and then cells were washed twice with ice-cold phosphate buffered saline (PBS). Subsequently, the treated cells were collected by centrifugation, fixed in ice-cold 70% (v/v) ethanol, washed with PBS, re-suspended with 100 μg/mL RNase, stained with 40 μg/mL PI, and analyzed by flow cytometry using FACS Calibur (Becton Dickinson, BD, Franklin Lakes, NJ, USA). The cell cycle distributions were calculated using CellQuest software 5.1 (Becton Dickinson).

MDA-MB-231 cells [4] = experiment: Cell cycle analysis by flow cytometry, MDA-MB-231; assay type: cell-based, human; settings: MDA-MB-231, treated at IC50, 24 h, vs untreated control
Text: as §5, §2, §3
The anti-proliferative activity of the tested pyridazines 11a-r was measured in vitro using the Sulfo-Rhodamine-B stain (SRB) assay. Briefly, Cells were inoculated in 96-well microtiter plate (5X104 cells/ well) for 24 h before treatment with the tested pyridazines to allow attachment of cell to the wall of the plate. Tested pyridazines were dissolved in DMSO at 1 mg/ml immediately before use and diluted to the appropriate volume just before addition to the cell culture. Different concentrations of tested pyridazines and staurosporine were added to the cells (three wells were prepared for each individual dose). Cells were incubated with the pyridazines for 48 h at 37°C and in atmosphere of 5% CO2. After 48 h cells were fixed, washed, and stained for 30 min with 0.4% (w/v) SRB dissolved in 1% acetic acid. Unbound dye was removed by four washes with 1% acetic acid, and attached stain was recovered with Tris-EDTA buffer. Color intensity was measured in an ELISA reader. The relation between percent of surviving fraction and drug concentration is plotted to get the survival curve for each cell line. The concentration required for 50% inhibition of cell viability (IC50) was calculated.
Breast cancer T-47D and MDA-MB-231 cells were treated with pyridazines 11l and 11m for 24 h (at their IC50 concentration), and then cells were washed twice with ice-cold phosphate buffered saline (PBS). […]

T-47D cells [5] = experiment: Annexin V-FITC/PI apoptosis assay, T-47D; assay type: cell-based, human; settings: treated at IC50, 48 h; for Annexin V+ cells, late apoptotic phase (upper right quadrant): control 0.19%; for Annexin V+ cells, early apoptotic phase (lower right quadrant): control […]
Protocol: (§6) Both T-47D and MDA-MB-231 cells were treated with pyridazines 11l and 11m at their IC50s for 48 h. The obtained results have been depicted in Figures 4–6.
(§7) 4. Annexin V-FITC Apoptosis Assay
(§8) Phosphatidylserine externalization was assayed using Annexin V-FITC/PI apoptosis detection kit (BD Biosciences, USA) according to the manufacturer’s instructions. Breast cancer T-47D and MDA-MB-231 cells were cultured to a monolayer then treated with pyridazines 11l and 11m at their IC50 concentration. Briefly, cells were then harvested via trypsinization, and rinsed twice in PBS followed by binding buffer. Moreover, cells were re-suspended in 100 μL of binding buffer with the addition of 1 μL of FITC-Annexin V followed by an incubation period of 30 min at 4 °C. Cells were then rinsed in binding buffer and resuspended in 150 μL of binding buffer with the addition of 1 μL of DAPI (1 μg/μL in PBS). Cells were then analyzed using the flow cytometer BD FACS Canto II and the results were interpreted with FlowJo7.6.4 software (Tree Star, Ashland, OR, USA). […]
(§9) Data are presented as means ± S.D. Individual groups were compared using the two-tailed independent Student’s t-test. Multiple group comparisons were carried out using one-way analysis of variance (ANOVA) followed by the Tukey–Kramer test for post-hoc analysis. Statistical significance was accepted at a level of p < 0.05. All statistical analyses were performed using GraphPad InStat software, version 3.05 (GraphPad Software, Inc., La Jolla, CA, USA). Graphs were sketched using GraphPad Prism software, version 5.00 (GraphPad Software, Inc., La Jolla, CA, USA).

MDA-MB-231 cells [6] = experiment: Annexin V-FITC/PI apoptosis assay, MDA-MB-231; assay type: cell-based, human; settings: MDA-MB-231, treated at IC50, 48 h; for Annexin V+ cells, late apoptotic phase (upper right quadrant): control 0.24%; for Annexin V+ cells, early apoptotic phase (lower right quadrant): control 0.56%
Protocol: as §6, §7, §8, §9

[7] = tested on: human colon cancer HT-29 cell line; parameters: method as in PMID 23307426; settings: in words; cited from earlier work
VEGFR-2 = tested on: VEGFR-2; parameters: method as in PMID 31852269; settings: in words; cited from earlier work
[8] = SRB assay, 48 h, breast cancer MDA-MB-231, mean ± SD of three experiments
[9] = SRB assay, breast cancer T-47D, mean ± SD of three experiments

O=C(NCc1ccccc1C(F)(F)F)c1cc(C(F)(F)F)c(NCCO)nn1 [11n]
IC50 (MDA-MB-231 cells [1]; [8]): 2.94 ± 0.09 µM

O=C(NC1C2CC3CC(C2)CC1C3)c1cc(C(F)(F)F)c(N2CCOCC2)nn1 (stereo not shown) [11d]
IC50 (MDA-MB-231 cells [1]; [8]): 2.18 ± 0.07 µM | melting point: 177 to 178 °C

O=C(NC1C2CC3CC(C2)CC1C3)c1cc(C(F)(F)F)c(NCc2ccccc2C(F)(F)F)nn1 (stereo not shown) [11e]
IC50 (T-47D cells [2]; [9]): 2.62 ± 0.08 µM | IC50 (CDK2/CyclinA2): 0.151 ± 0.00616 µM

CCCCNC(=O)c1cc(C(F)(F)F)c(N2CCOCC2)nn1 [11i]
IC50 (T-47D cells [2]; [9]): 0.44 ± 0.01 µM

CC(C)(C)NC(=O)c1cc(C(F)(F)F)c(NCc2ccccc2C(F)(F)F)nn1 [11h]
IC50 (T-47D cells [2]; [9]): 1.6 ± 0.05 µM | IC50 (MDA-MB-231 cells [1]; [8]): 2.44 ± 0.08 µM | melting point: 132 to 133 °C | IC50 (CDK2/CyclinA2): 0.0438 ± 0.00179 µM

O=C(NCC1CCOCC1)c1cc(C(F)(F)F)c(NCC2CC2)nn1 [11l]
IC50 (T-47D cells [2]; [9]): 1.57 ± 0.05 µM | IC50 (MDA-MB-231 cells [1]; [8]): 1.3 ± 0.04 µM | Mean tumour selectivity index (S. I.) (MCF-10A cells; IC50 for MCF-10A / IC50 average for (T-47D and MDA-MB-231)): 13.7 | IC50 (MCF-10A cells; MTT assay, non-tumorigenic human breast MCF-10A cells): 19.6 ± 0.38 µM | Increase in sub-G1 phase (T-47D cells [3]): 13.8 fold | Rise in cell population of G2/M phase (T-47D cells [3]): 2.7 fold | Increase in cell population of G2/M phase (MDA-MB-231 cells [4]): 4.1 fold | Increase in sub-G1 phase (MDA-MB-231 cells [4]): 18.9 fold | Increase in Annexin V+ apoptotic cells (UR + LR) with respect to untreated control (T-47D cells [5]): about 33 fold | Annexin V+ cells, late apoptotic phase (upper right quadrant) (T-47D cells [5]): 27.2% | Annexin V+ cells, early apoptotic phase (lower right quadrant) (T-47D cells [5]): 6.39% | Annexin V+ cells, late apoptotic phase (upper right quadrant) (MDA-MB-231 cells [6]): 23.60% | Annexin V+ cells, early apoptotic phase (lower right quadrant) (MDA-MB-231 cells [6]): 3.38% | IC50 (CDK2/CyclinA2): 0.0556 ± 0.00227 µM

CCOC(=O)c1ccc(-c2ccc(N(C)C)nn2)cc1 [III]
Cytotoxic activity towards HT-29 [7]: excellent cytotoxic activity

COc1ccc(Nc2ccc(NC(=O)Nc3ccc(Cl)c(C(F)(F)F)c3)cc2)nn1 [IV]
IC50 VEGFR-2 (VEGFR-2): nanomolar range

CCCCNc1nnc(C(=O)NC2C3CC4CC(C3)CC2C4)cc1C(F)(F)F (stereo not shown) [11b]
IC50 (T-47D cells [2]; [9]): 1.37 ± 0.04 µM | melting point: 110 to 111 °C

CC(C)(C)NC(=O)c1cc(C(F)(F)F)c(N2CCOCC2)nn1 [11g]
melting point: 121 to 122 °C

O=C(NCC1CCOCC1)c1cc(C(F)(F)F)c(N2CCOCC2)nn1 [11m]
IC50 (T-47D cells [2]): 0.43 ± 0.01 µM | IC50 (MDA-MB-231 cells [1]; MDA-MB-231, 48 h): 0.99 ± 0.03 µM | IC50 (MCF-10A cells; Homo sapiens, MCF-10A): 11.4 ± 0.22 µM | Increase in sub-G1 phase (T-47D cells [3]): 9.5 fold | Rise in cell population of G2/M phase (T-47D cells [3]): 2.5 fold | Increase in cell population of G2/M phase (MDA-MB-231 cells [4]): 3.8 fold | Increase in sub-G1 phase (MDA-MB-231 cells [4]): 15.2 fold | Increase in Annexin V+ apoptotic cells (UR + LR) with respect to untreated control (T-47D cells [5]): ~21 fold | Annexin V+ cells, late apoptotic phase (upper right quadrant) (T-47D cells [5]): 10.34% | Annexin V+ cells, early apoptotic phase (lower right quadrant) (T-47D cells [5]): 11.36% | Annexin V+ cells, late apoptotic phase (upper right quadrant) (MDA-MB-231 cells [6]): 15.56% | Annexin V+ cells, early apoptotic phase (lower right quadrant) (MDA-MB-231 cells [6]): 8.19%

CC(C)(C)NC(=O)c1cc(C(F)(F)F)c(NC2CCCC2)nn1 [11f]
IC50 (T-47D cells [2]; [9]): 1.94 ± 0.06 µM | melting point: 62 to 63 °C
